# Data as given in patent US20050112573A1, “Method of detecting toxic substance” (priority 2001, published 2005).
# System: yeast genes (level of expressed mRNA)
# Test: DNA chip analysis of expressed mRNA of yeast genes after 2 h culture with a toxic chemical substance
# Assay type: cell-based, Saccharomyces cerevisiae S288C
# Details: for The level of expressed mRNA in the presence of chemical substance/ (ratio to absence of chemical substance): stress protein genes, DNA chip
# Summary of the method: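 S. cerevisiae S288C grown at 25° C in YPD; toxicant added at log phase at growth-inhibitory, non-lethal levels for 2 h, untreated cells as control. Poly(A) mRNA reverse-transcribed with Cy3/Cy5-dUTP, hybridized to whole-genome chip at 65° C >12 h; value is fluorescence ratio versus untreated.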
structure (smiles),measurement,setting,value
"C[S+](C)[O-] [(15), dimethylsulfoxide]",The level of expressed mRNA in the presence of chemical substance/absence: YOR267C,gene YOR267C,1.3
same,The level of expressed mRNA in the presence of chemical substance/absence: YOR325W,gene YOR325W,0.7
same,level of expressed mRNA in the presence of chemical substance/in its absence,gene YOR336W,0.6
same,level of expressed mRNA in the presence of chemical substance/in its absence,gene YOR344C,0.7
same,level of expressed mRNA in the presence of chemical substance/in its absence,gene YOR347C,2.0
same,The level of expressed mRNA in the presence of chemical substance/absence: YPL005W,gene YPL005W,1.2
same,level of expressed mRNA in the presence of chemical substance/in its absence,gene YPL017C,1.0
same,"The level of expressed mRNA in the presence of chemical substance / the level in the absence of chemical substance, yeast gene YPL107W","gene YPL107W, DNA chip fluorescence ratio to control without chemical, 2 hours culture with chemical, growth-inhibiting non-lethal concentration",0.7
same,"The level of expressed mRNA in the presence of chemical substance / the level in the absence of chemical substance, yeast gene YPL138C","gene YPL138C, DNA chip fluorescence ratio to control without chemical, 2 hours culture with chemical, growth-inhibiting non-lethal concentration",2.7
same,The level of expressed mRNA in the presence of chemical substance/absence: YPL150W,gene YPL150W,1.1
same,The level of expressed mRNA in the presence of chemical substance/absence: YPL151C,gene YPL151C,1.8
same,The level of expressed mRNA in the presence of chemical substance/absence: YPL152W,gene YPL152W,2.3
same,The level of expressed mRNA in the presence of chemical substance/absence: YPL168W,gene YPL168W,0.8
same,The level of expressed mRNA in the presence of chemical substance/absence: YPL180W,gene YPL180W,0.7
same,The level of expressed mRNA in the presence of chemical substance/absence: YPL188W,gene YPL188W,0.8
same,The level of expressed mRNA in the presence of chemical substance/absence: YPL221W,gene YPL221W,1.0
same,The level of expressed mRNA in the presence of chemical substance/absence: YPL225W,gene YPL225W,0.9
same,The level of expressed mRNA in the presence of chemical substance/absence: YPL249C,gene YPL249C,1.0
same,The level of expressed mRNA in the presence of chemical substance/absence: YPL260W,gene YPL260W,1.3
same,level of expressed mRNA in the presence of chemical substance/in its absence,gene YPL265W,1.2
same,level of expressed mRNA in the presence of chemical substance/in its absence,gene YPR006C,0.7
same,level of expressed mRNA in the presence of chemical substance/in its absence,gene YPR026W,3.1
same,The level of expressed mRNA in the presence of chemical substance/absence: YPR049C,gene YPR049C,1.5
same,The level of expressed mRNA in the presence of chemical substance/absence: YPR061C,gene YPR061C,0.4
same,The level of expressed mRNA in the presence of chemical substance/absence: YPR093C,gene YPR093C,0.8
same,The level of expressed mRNA in the presence of chemical substance/absence: YPR146C,gene YPR146C,0.9
same,The level of expressed mRNA in the presence of chemical substance/absence: YPR148C,gene YPR148C,1.7
same,The level of expressed mRNA in the presence of chemical substance/absence: YPR150W,gene YPR150W,0.9
same,The level of expressed mRNA in the presence of chemical substance/absence: YPR158W,gene YPR158W,0.9
same,The level of expressed mRNA in the presence of chemical substance/absence: YPR169W,gene YPR169W,0.9
same,The level of expressed mRNA in the presence of chemical substance/absence: YPR172W,gene YPR172W,1.5
same,The level of expressed mRNA in the presence of chemical substance/absence: YPR174C,gene YPR174C,1.2
same,The level of expressed mRNA in the presence of chemical substance/The level of expressed mRNA in the absence of chemical substance,yeast gene YAR010C,1.8
same,The level of expressed mRNA in the presence of chemical substance/The level of expressed mRNA in the absence of chemical substance,yeast gene YBL005W-A,0.9
same,"The level of expressed mRNA in the presence of chemical substance/ (ratio to absence), gene YBL038W","yeast gene YBL038W, mitochondria-located protein genes, 2 h culture with chemical",0.7
same,The level of expressed mRNA in the presence of chemical substance/The level of expressed mRNA in the absence of chemical substance,yeast gene YBL041W,1.3
same,The level of expressed mRNA in the presence of chemical substance/The level of expressed mRNA in the absence of chemical substance,yeast gene YBL043W,1.8
same,The level of expressed mRNA in the presence of chemical substance/The level of expressed mRNA in the absence of chemical substance,yeast gene YBL078C,2.5
same,The level of expressed mRNA in the presence of chemical substance/ (ratio to absence of chemical substance),yeast gene YBL093C,0.5
same,"The level of expressed mRNA in the presence of chemical substance/ (in its absence), gene YBR036C","yeast gene YBR036C, ratio of DNA chip fluorescence intensity to that without chemical substance",1.5
same,The level of expressed mRNA in the presence of chemical substance/ (ratio to absence of chemical substance),yeast gene YBR044C,0.9
same,"The level of expressed mRNA in the presence of chemical substance/ (ratio to absence), gene YBR122C","yeast gene YBR122C, mitochondria-located protein genes, 2 h culture with chemical",0.7
same,The level of expressed mRNA in the presence of chemical substance/The level of expressed mRNA in the absence of chemical substance,yeast gene YBR214W,5.1
same,"The level of expressed mRNA in the presence of chemical substance/ (ratio to absence), gene YBR251W","yeast gene YBR251W, mitochondria-located protein genes, 2 h culture with chemical",0.8
same,"The level of expressed mRNA in the presence of chemical substance/ (in its absence), gene YBR298C","yeast gene YBR298C, ratio of DNA chip fluorescence intensity to that without chemical substance",0.2
same,The level of expressed mRNA in the presence of chemical substance/The level of expressed mRNA in the absence of chemical substance,yeast gene YCL020W,2.5
same,The level of expressed mRNA in the presence of chemical substance/The level of expressed mRNA in the absence of chemical substance,yeast gene YCL027W,3.6
same,The level of expressed mRNA in the presence of chemical substance/The level of expressed mRNA in the absence of chemical substance,yeast gene YCR004C,0.8
same,"The level of expressed mRNA in the presence of chemical substance/ (ratio to absence), gene YCR046C","yeast gene YCR046C, mitochondria-located protein genes, 2 h culture with chemical",1.4
same,The level of expressed mRNA in the presence of chemical substance/The level of expressed mRNA in the absence of chemical substance,yeast gene YCR071C,1.1
same,"The level of expressed mRNA in the presence of chemical substance/ (ratio to absence), gene YCR083W","yeast gene YCR083W, mitochondria-located protein genes, 2 h culture with chemical",1.0
same,The level of expressed mRNA in the presence of chemical substance/ (ratio to absence of chemical substance),yeast gene YCR083W,1.0
same,The level of expressed mRNA in the presence of chemical substance/The level of expressed mRNA in the absence of chemical substance,yeast gene YCR088W,2.8
same,The level of expressed mRNA in the presence of chemical substance/The level of expressed mRNA in the absence of chemical substance,yeast gene YDL008W,0.7
same,"The level of expressed mRNA in the presence of chemical substance/ in its absence, gene YDL067C","yeast gene YDL067C, energy system protein genes, 2 h culture with the chemical, ratio to control without chemical",0.7
same,"The level of expressed mRNA in the presence of chemical substance/ (ratio to absence), gene YDL067C","yeast gene YDL067C, mitochondria-located protein genes, 2 h culture with chemical",0.7
same,"The level of expressed mRNA in the presence of chemical substance/ in its absence, gene YDL078C","yeast gene YDL078C, energy system protein genes, 2 h culture with the chemical, ratio to control without chemical",0.5
